# According to patent publication US20140296257A1, “High-Loading Water-Soluable Carrier-Linked Prodrugs” (Ascendis Pharma A/S, priority 2011, published 2014):
# Conditions: pH 7.4 buffer, 37° C., released paliperidone plotted against time
# Method: Sample was incubated at 37° C. At various time points aliquots were analyzed by UPLC and the amount of released paliperidone was plotted against time. […] Curve fitting software was used to determine half life time of drug release from the respective conjugate.
substance,measurement,value
4-arm PEG 20 kDa-octapaliperidone [Conjugate 5],Drug release kinetics,first order kinetics
